Experimental findings from article PMC9549968 (The Journal of investigative dermatology, 2021) are described below.

Positions of bridges follow the written chain, without caps; N, C: chain ends. No end group written: not given here.

The test system of experiment [1] is Mrgpra3-Cre-GFP neurons. Briefly: Whole-cell patch-clamp recording of Mrgpra3-Cre-GFP neurons. In kind it is cell-based, mouse. The note with it: n=8/8.
Experiment [2] deals with T1, Mrgprc11 (Mus musculus, UniProt Q8CIP3).
T1 sequence (Q8CIP3 1-322): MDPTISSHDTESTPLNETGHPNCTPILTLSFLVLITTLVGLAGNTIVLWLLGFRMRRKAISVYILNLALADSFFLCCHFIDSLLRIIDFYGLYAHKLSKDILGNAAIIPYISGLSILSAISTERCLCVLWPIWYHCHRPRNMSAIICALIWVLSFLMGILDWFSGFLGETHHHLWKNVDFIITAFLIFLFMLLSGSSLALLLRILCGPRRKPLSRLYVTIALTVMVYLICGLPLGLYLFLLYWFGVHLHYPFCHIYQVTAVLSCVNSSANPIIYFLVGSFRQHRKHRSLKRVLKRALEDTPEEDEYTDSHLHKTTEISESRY
Put plainly: FLIPR calcium imaging, HEK293 expressing Mrgprc11. In kind it is cell-based.

The test system of experiment [3] is DRG neurons. Briefly: Calcium imaging of cultured DRG neurons. The note with it: 352 neurons imaged. In kind it is cell-based, mouse.
Experiment [4] concerns the target MRGPRX1 (Homo sapiens, UniProt Q96LB2). Briefly: FLIPR calcium imaging, HEK293 expressing MRGPRX1. In kind it is cell-based. Conditions: SEM.
The target in experiment [5] is T2, Mrgpra3 (Mus musculus, UniProt Q91WW3).
T2 sequence (Q91WW3 1-302): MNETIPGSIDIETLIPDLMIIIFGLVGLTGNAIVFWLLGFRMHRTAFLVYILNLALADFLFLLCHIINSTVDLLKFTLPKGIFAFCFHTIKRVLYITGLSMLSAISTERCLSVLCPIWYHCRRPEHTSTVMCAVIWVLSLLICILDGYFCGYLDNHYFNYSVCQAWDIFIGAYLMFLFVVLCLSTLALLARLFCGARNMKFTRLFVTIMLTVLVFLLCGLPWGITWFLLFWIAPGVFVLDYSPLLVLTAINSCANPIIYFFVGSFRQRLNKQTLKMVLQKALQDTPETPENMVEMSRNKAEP
Briefly: FLIPR calcium imaging, HEK293 expressing Mrgpra3. In kind it is cell-based.

For experiment [6], the target named is T3, Mrgpra1 (Mus musculus, UniProt Q91WW5).
T3 sequence (Q91WW5 1-304): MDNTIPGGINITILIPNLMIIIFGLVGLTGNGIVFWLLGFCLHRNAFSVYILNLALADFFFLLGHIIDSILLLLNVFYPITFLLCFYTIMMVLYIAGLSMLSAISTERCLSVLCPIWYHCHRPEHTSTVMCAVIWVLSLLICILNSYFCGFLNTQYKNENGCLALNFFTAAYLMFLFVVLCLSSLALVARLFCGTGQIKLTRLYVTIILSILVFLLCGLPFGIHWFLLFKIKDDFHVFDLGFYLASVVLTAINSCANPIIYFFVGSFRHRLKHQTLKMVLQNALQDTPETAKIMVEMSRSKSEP
Put plainly: FLIPR calcium imaging, HEK293 expressing Mrgpra1. In kind it is cell-based. The note with it: SEM.

Experiment [7] addresses T4, Mrgprb2 (Mus musculus, UniProt Q3KNA1).
T4 sequence (Q3KNA1 1-338): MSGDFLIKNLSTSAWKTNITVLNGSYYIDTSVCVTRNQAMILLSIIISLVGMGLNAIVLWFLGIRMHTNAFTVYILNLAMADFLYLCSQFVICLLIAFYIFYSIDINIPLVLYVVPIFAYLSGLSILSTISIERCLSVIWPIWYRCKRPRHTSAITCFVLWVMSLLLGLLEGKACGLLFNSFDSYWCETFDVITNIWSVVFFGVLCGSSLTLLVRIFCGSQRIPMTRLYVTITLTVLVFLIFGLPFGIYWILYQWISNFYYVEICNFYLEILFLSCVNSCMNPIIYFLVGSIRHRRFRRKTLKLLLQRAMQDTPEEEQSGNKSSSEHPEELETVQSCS
Put plainly: FLIPR calcium imaging, HEK293 expressing Mrgprb2. In kind it is cell-based.

The target of experiment [8] is T5, Mrgpra2b (Mus musculus, UniProt Q91WW4).
T5 sequence (Q91WW4 1-305): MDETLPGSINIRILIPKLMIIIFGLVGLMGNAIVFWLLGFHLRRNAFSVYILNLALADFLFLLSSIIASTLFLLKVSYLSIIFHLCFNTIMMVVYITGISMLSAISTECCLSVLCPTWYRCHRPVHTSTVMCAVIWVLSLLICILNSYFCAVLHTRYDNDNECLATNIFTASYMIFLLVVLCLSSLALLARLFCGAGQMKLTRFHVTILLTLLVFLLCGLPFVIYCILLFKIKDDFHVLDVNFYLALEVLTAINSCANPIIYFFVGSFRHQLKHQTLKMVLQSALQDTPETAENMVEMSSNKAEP
Put plainly: FLIPR calcium imaging, HEK293 expressing Mrgpra2b. In kind it is cell-based.

In experiment [9] the test system is mice. Briefly: Itch behavior: scratching bouts after intradermal injection. Conditions: for itch-responses (scratching bouts): mice, intradermal injection 1mM, 10μL, versus saline, n=8-12. In kind it is in vivo, mouse.
For experiment [10], the system named is LAD2 cells.
Experiment [11] addresses MRGPRX3 (Homo sapiens, UniProt Q96LB0). Briefly: FLIPR calcium imaging, HEK293 expressing MRGPRX3. In kind it is cell-based.
Experiment [12] has as its target T6, MRGPRX2 (Homo sapiens, UniProt Q96LB1).
T6 sequence (Q96LB1 1-330): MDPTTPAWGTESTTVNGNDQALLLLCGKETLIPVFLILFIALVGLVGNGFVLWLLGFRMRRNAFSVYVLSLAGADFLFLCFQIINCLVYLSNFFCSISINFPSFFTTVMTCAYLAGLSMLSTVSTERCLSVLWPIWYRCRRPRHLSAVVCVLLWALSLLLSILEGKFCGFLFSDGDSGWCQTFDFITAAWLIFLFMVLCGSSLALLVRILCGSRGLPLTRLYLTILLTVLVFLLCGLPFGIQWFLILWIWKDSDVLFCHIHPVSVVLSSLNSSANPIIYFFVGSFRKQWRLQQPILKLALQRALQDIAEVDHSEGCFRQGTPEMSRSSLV
Briefly: FLIPR calcium imaging, HEK293 expressing MRGPRX2. Conditions: SEM. In kind it is cell-based.

Sequence of MRGPRX1 (Q96LB2 whole entry): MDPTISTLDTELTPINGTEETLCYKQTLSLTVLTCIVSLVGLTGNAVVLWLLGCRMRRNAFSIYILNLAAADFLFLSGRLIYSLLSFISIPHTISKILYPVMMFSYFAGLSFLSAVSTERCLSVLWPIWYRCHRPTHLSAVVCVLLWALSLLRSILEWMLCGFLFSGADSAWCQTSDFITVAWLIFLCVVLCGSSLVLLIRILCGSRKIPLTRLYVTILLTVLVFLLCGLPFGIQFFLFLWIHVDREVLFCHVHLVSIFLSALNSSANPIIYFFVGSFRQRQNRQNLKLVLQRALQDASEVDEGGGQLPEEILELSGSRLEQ
Sequence of MRGPRX3 (Q96LB0 whole entry): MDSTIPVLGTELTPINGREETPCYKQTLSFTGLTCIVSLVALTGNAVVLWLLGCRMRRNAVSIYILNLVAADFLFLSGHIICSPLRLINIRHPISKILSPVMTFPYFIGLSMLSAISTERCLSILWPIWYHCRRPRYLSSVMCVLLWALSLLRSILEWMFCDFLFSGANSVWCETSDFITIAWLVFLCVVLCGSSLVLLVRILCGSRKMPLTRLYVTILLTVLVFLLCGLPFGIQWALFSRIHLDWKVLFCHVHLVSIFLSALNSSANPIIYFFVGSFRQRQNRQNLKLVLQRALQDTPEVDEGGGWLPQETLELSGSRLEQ

As for `CCN(CC)CCCC(C)Nc1ccnc2cc(Cl)ccc12` (stereo not drawn) [CQ, chloroquine, reference compound], the “action potential discharges in Mrgpra3-Cre-GFP neurons” value in [1] (100μM) was “evoked action potential discharges”.

As to “FLPKTLRKFFCRIRGGRCAVLNCLGKEEQIGRCSNSGRKCCRKKK (disulfide 11-40, 18-33, 23-41) [Defb14]”, the EC50 amounted to 21600 ± 11700 nM in [2]; 610 ± 170 nM in [4]; 1000 ± 180 nM in experiment [5]; 620 ± 160 nM in experiment [6]; 1700 ± 450 nM in [7]; 19400 ± 8600 nM in experiment [8]. In experiment [3] (cultured mouse DRG neurons, AAV9-GCaMP6f), the “Defb14-responsive neurons that responded to CQ” value was 46/55. Further, the “calcium response of DRG neurons” value in experiment [3] (dissociated mouse DRG neurons expressing GCaMP6f) is given as “induced calcium increases in DRG neurons”. Also, the “action potential discharges in Mrgpra3-Cre-GFP neurons” value in experiment [1] (1μM) was “evoked action potential discharges”. In addition, the “Defb14 induced scratching in mast-cell deficient mice” value in experiment [9] (Mcpt5-Cre::Rosa-stop-DTA mice versus wild-type controls, 1mM, p=0.87) was “did not attenuate”. Besides, the “scratching responses in mice with ablated Mrgpra3-neurons” value in [9] (Mrgpra3-Cre::Rosa-stop-DTA mice (n=14) versus controls (n=12), 1mM, p=0.007) is “significantly attenuated”. Moreover, the “itch-responses (scratching bouts)” value in [9] was “evoked the most intense itch phenotype”.

On to “KKINNPVSCLRKGGRCWNRCIGNTRQIGSCGVPFLKCCKRK (disulfide 9-37, 16-30, 20-38) [Defb3]”, for which the concentration for a half-maximal effect (EC50) in experiment [6] is 2700 ± 600 nM; in experiment [7], 11500 ± 3500 nM. Further, the “itch-responses (scratching bouts)” value in experiment [9] was “evoked a strong itch phenotype”.

As to “GIINTLQKYYCRVRGGRCAVLSCLPKEEQIGKCSTRGRKCCRRKK (disulfide 11-40, 18-33, 23-41) [DEFB103]”, the “activation of LAD2 cells, calcium imaging” value in experiment [10] (peptide 1μM, compared with DEFB4) was “activated more LAD2 cells and evoked stronger calcium influx than the DEFB4”. Moreover, in experiment [10] (ratio of EC50s, LAD2 calcium imaging), the “potency of DEFB103 relative to DEFB4 in LAD2 cells” value was “about 10 fold”. For the same compound, the values for the EC50 in experiment [4], in [11] and in experiment [12] were 280 ± 50 nM, 7400 ± 1900 nM and 420 ± 110 nM, respectively.

On to “GIGDPVTCLKSGAICHPVFCPRRYKQIGTCGLPGTKCCKKP (disulfide 8-37, 15-30, 20-38) [DEFB4]”, for which the EC50 in experiment [4] worked out at 58300 ± 18000 nM; in [12] it was 17500 ± 3800 nM.

As for “Defb1: recombinant mouse β-defensin, constitutively highly expressed in skin (DQYKCLQHGGFCLRSSCPSNTKLQGTCKPDKPNCCKS; ends and bridges not checked; cysteine pairing not given here; UniProt P56386 33-69, looked up)”, the “itch-responses (scratching bouts)” value in experiment [9] was “not significantly different from saline injection”.
